Results: US6911446B2, “Methods of modulating serine/threonine protein kinase function with quinazoline-based compounds” (Sugen, Inc., priority 1997, dated 2005)

Tested on: 3T3/H-Ras (NIH 3T3 clone 7 cells expressing genomic fragment of oncogenic H-Ras)
Experiment: Growth of NIH 3T3 cells over expressing H-Ras (SRB)
Format: cell-based
Conditions: Mus musculus, NIH3T3, 72 h, growth of 3T3/H-Ras cells, 3 days with compound
Description: The following assay measures growth rates for NIH-3T3 cells expressing RAS. The purpose of the assay is to determine the effects of compounds on the growth of NIH 3T3 cells over expressing H-Ras.
• 96-well flat bottom sterile plates • 96-well round bottom sterile plates • sterile 25 mL or 100 mL reservoir • pipets, multi-channel pipetman • sterile pipet tips • sterile 15 mL and 50 mL tubes Reagents • 0.4% SRB in 1% acetic acid • 10 mM Tris base • 10% TCA • 1% acetic acid • sterile DMSO (Sigma) • compound in DMSO (100 mM or less stock solution) • Trypsin-EDTA (GIBCO BRL) Cell Line: 3T3/H-Ras (NIH 3T3 clone 7 cells expressing genomic fragment of oncogenic H-Ras).
The cells can be constructed using the following protocol: • 1. Subclone a gene fragment encoding Ras into a commercially available vector that will stably transfect NIH-3T3 cells. The fragment is from the genomic transforming allele of cHa-ras. • 2. Transfect NIH-3T3 cells with the subcloned vector by a calcium phosphate method. Select cells expressing the Ras construct in 2% serum in DMEM. Visible foci are observed after 2 weeks. Pool the transformed cells to generate a stably transformed cell line. Growth Medium: 2% calf serum/DMEM+2 mM glutamine, Pen/Strep Protocol: Day 0: Cell Plating:
This part of assay is carried out in a laminar flow hood. • 1. Trypsinize cells. Transfer 200 μL of cell suspension to 10 mL of isotone. Count cells with a Coulter Counter. • 2. Dilute cells in growth medium to 60,000 cell/mL. Transfer 100 μL of cells to each well in a 96-well flat bottom plate to give 6000 cells/well. • 3. Use half of plate (4 rows) for each comound and quadruplicate wells for each compound concentration, and a set of 4 wells for medium control. • 4. Gently shake plates to allow for uniform attachment of the cells. • 5. Incubate the plates at 37° C. in a 10% CO2 incubator. Day 1: Addition of Compound:
This part of assay is carried out in a laminar flow hood. • 1. In a 96-well round bottom plate, add 120 μL of growth medium containing 2×final % DMSO found in highest screening concentration of compound to columns 1 to 11. For example, if the highest concentration is […], and this is made from a 100 mM stock, 1×DMSO is 0.1%, so 2×DMSO is 0.2%. This plate is used to titrate out the compound, 4 rows per compound. • 2. In a sterile 15 mL tube, make a 2×solution of the highest screening concentration of compound in growth medium plus 2×DMSO. 1 mL per cell line is needed. The starting concentration of the compound is usually 100 μM but this concentration may vary depending upon the solubility of the compound. • 3. Transfer 240 μL of the 2×starting compound solution to qudruplicate wells in column 12 of the 96-well round bottom plate. Do 1:2 serial dilutions across the plate from right to left by transferring […] from column 12 to column 11, column 11 to 10 and so on through column 2. Transfer 100 μL of compound dilutions, and 100 μL of medium in column 1, onto 100 μL medium on cells in corresponding wells of 96-well flat bottom plate. Total volume per well should be 200 μL. • 4. Return the plate to the incubator and incubate for 3 days. Day 4: Development of Assay
This party of assay is carried out on the bench. • 1. Aspirate or pour off medium. Add 200 μL cold 10% TCA to each well to fix cells. Incubate plate for at least 60 min. at 4° C. • 2. Discard TCA and rinse wells 5 times with tap water. Dry plates upside down on paper towels. • 3. Stain cells with 100 μL/well 0.4% SRB for 10 min. • 4. Pour of SRB and rinse wells 5 times with 1% acetic acid. Dry plates completely upside down on paper towels. • 5. Solubilize dye with 100 μL/well 10 mM Tris base for 5-10 min. on shaker. • 6. Read plates on Dynatech ELISA Plate REader at 570 nm with reference at 630 nm.

SMILES	IC50
COc1ccc(Oc2cccc3nc(N)nc(N)c23)cc1 [Compound A-6, 2,4-Diamino-5-(4-methoxyphenoxy)quinazoline]	> 100 µM
Nc1ncnc2cccc(Oc3ccc(OCc4ccccc4)cc3)c12 [Compound A-28, 4-Amino-5-(4-benzyloxyphenoxy)quinazoline]	6 µM
COc1ccccc1Oc1cccc2nc(N)nc(N)c12 [Compound A-22, 2,4-Diamino-5-(2-methoxyphenoxy)quinazoline]	0.4 µM
Nc1nc(N)c2c(Oc3ccc(F)cc3)cccc2n1 [Compound A-7, 2,4-Diamino-5-(4-fluorophenoxy)quinazoline]	> 100 µM
Nc1nc(N)c2c(Oc3ccccc3)cccc2n1 [Compound A-1, 2,4-Diamino-5-phenoxyquinazoline]	0.85 µM
COc1cccc(Oc2cccc3nc(N)nc(N)c23)c1 [Compound A-23, 2,4-Diamino-5-(3-methoxyphenoxy)quinazoline]	0.6 µM
CC(C)(C)c1ccc(Oc2cccc3nc(N)nc(N)c23)cc1 [Compound A-8, 2,4-Diamino-5-(4-tert-butylphenoxy)quinazoline]	22.3 µM
Cc1ccc(Oc2cccc3nc(N)nc(N)c23)cc1 [Compound A-9, 2,4-Diamino-5-(4-methylphenoxy)quinazoline]	20.4 µM
